This assay concerns the target NP (Influenza A virus, UniProt P15682). The assay can be described thus: biochemical. Type of assay: binding.

Sequence of NP (P15682 whole entry): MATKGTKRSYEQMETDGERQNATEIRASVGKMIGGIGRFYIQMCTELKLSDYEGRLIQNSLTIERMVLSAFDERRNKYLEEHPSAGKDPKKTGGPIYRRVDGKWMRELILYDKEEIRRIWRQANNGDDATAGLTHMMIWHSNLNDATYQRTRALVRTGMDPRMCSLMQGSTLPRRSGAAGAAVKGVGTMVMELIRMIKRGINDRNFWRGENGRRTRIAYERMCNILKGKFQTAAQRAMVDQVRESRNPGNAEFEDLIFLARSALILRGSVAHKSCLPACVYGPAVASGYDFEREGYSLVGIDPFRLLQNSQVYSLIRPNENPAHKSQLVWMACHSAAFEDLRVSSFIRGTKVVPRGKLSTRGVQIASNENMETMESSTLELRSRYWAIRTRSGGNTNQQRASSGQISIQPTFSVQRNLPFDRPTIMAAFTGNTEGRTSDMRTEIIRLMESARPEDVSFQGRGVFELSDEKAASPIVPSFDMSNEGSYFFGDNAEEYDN

Turning to `O=C(O)CCC(=O)N1N=C(c2c(-c3ccccc3)c3cc(Br)ccc3[nH]c2=O)C[C@@H]1c1ccc([N+](=O)[O-])cc1` [Compound 9], the “binding affinity for NP relative to nucleozin” value was “higher binding affinity for NP than nucleozin”.

The term Kd denotes the concentration at which binding is half-saturated. A higher Kd goes with weaker binding. On to `O=C(O)CCC(=O)Nc1nc2n(n1)C(c1ccc(Cl)cc1)C=C(c1ccc(Cl)cc1)N2` (centres unmarked) [Compound 13], for which binding was put at a Kd of 38.2 µM and the “binding affinity for NP relative to nucleozin” value is “higher binding affinity for NP than nucleozin”.

In turn, `Cc1onc(-c2ccccc2)c1C(=O)N1CCN(c2ccc([N+](=O)[O-])cc2Cl)CC1` [nucleozin, reference compound] had a Kd of 9.73 µM.

Turning to `COc1ccc([C@H]2CC(c3c(-c4ccccc4)c4cc(Br)ccc4[nH]c3=O)=NN2C(=O)CCC(=O)O)cc1` [Compound 3], the Kd amounted to 210 µM and the “binding affinity for NP relative to nucleozin” value is recorded as “higher binding affinity for NP than nucleozin”.

As to `COc1ccc(C2CC(c3c(-c4ccccc4)c4cc(Cl)ccc4[nH]c3=O)=NN2C(=O)CCC(=O)O)cc1` (centres unmarked) [Compound 8], the Kd stood at 78.5 µM and the “binding affinity for NP relative to nucleozin” value is listed as “higher binding affinity for NP than nucleozin”.

Take `Cc1ccc([C@@H]2C=C(c3ccc(Cl)cc3)Nc3nc(NC(=O)CCCC(=O)O)nn32)cc1` [Compound 4]: the “binding affinity for NP relative to nucleozin” value is “higher binding affinity for NP than nucleozin”.

With `O=C(O)CCC(=O)N1N=C(c2c(O)nc3ccc(Br)cc3c2-c2ccccc2)CC1c1ccco1` (centres unmarked) [Compound 1], the equilibrium dissociation constant (Kd) worked out at 150 µM and the “binding affinity for NP relative to nucleozin” value is reported as “higher binding affinity for NP than nucleozin”.

Turning to `COc1ccc([C@@H]2C=C(c3ccc(Cl)cc3)Nc3nc(NC(=O)CCCC(=O)O)nn32)cc1` [Compound 12], the “binding affinity for NP relative to nucleozin” value is given as “higher binding affinity for NP than nucleozin”.

For `O=C(O)CCCC(=O)Nc1nc2n(n1)[C@H](c1ccccc1)C=C(c1ccc(Cl)cc1)N2` [Compound 14], the Kd worked out at 69.7 µM and the “binding affinity for NP relative to nucleozin” value was “higher binding affinity for NP than nucleozin”.

Values taken from paper PMC12525657 (Molecules, 2025).
